# Source: patent US20240402196A1 (Exact Sciences Corporation, priority 2018, published 2024)
# Entries after “also recorded” stand apart in the source; their conditions may differ.
# Columns and labels:
# [1] = biological target: T1, hemoglobin in stool samples (Homo sapiens, UniProt P68871+P69905); experiment: 7-Day shipping simulation, hemoglobin % recovery by ELISA; set-up: from tissue; host or cells: stool samples
# Experimental: (§1) To assess the stability of hemoglobin in stool samples, samples were exposed to simulated shipping stress conditions using a thermal cycler. […] An ELISA based detection method is used to determine the hemoglobin concentrations of samples before and after exposure to the shipping simulation. Hemoglobin stability is calculated as a % recovery of hemoglobin after the samples have been exposed to the shipping simulation.
# To assess the stability of hemoglobin in stool samples beyond 3 days, a 7-Day shipping simulation was created.
# Hb = biological target: T2, Hb (Homo sapiens, UniProt P68871+P69905); experiment: Appendix B additive screen, % Hb Recovery
# T2 construct: To assess the stability of hemoglobin in stool samples, samples were exposed to simulated shipping stress conditions; from tissue; host or cells: stool samples
# [2] = biological target: T1, hemoglobin in stool samples; experiment: 3-Day shipping simulation, hemoglobin % recovery by ELISA; set-up: from tissue; host or cells: stool samples;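 also: stool samples put through shipping stress in a thermal cycler, hemoglobin quantified by ELISA before and after, stability given as post-stress % of the pre-stress level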
# [3] = biological target: T1, hemoglobin in stool samples; experiment: 3-Day extreme temperature shipping simulation, hemoglobin % recovery by ELISA; set-up: from tissue; host or cells: stool samples
# Experimental: as §1
# As an additional challenge, a shipping simulation meant to represent a “worst case” scenario was created using extreme temperatures.
# [4] = biological target: T1, hemoglobin in stool samples; experiment: Accelerated shipping simulation (35C 16 hour challenge), hemoglobin % recovery by ELISA; set-up: from tissue; host or cells: stool samples;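 also: stool hemoglobin measured by ELISA before and after thermal-cycler shipping stress, stability given as percent of pre-stress hemoglobin recovered afterwards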
# hemoglobin (Hb) = biological target: T3, hemoglobin (Hb) (Homo sapiens, UniProt P68871+P69905); experiment: Appendix B: additives in Hb Collection Buffer, % Hb Recovery
# T3 construct: To assess the stability of hemoglobin in stool samples, samples were exposed to simulated shipping stress conditions; from tissue; host or cells: stool samples
# hemoglobin = biological target: T4, hemoglobin (Homo sapiens, UniProt P68871+P69905); experiment: Appendix B additive screen in Hb Collection Buffer, % Hb Recovery
# T4 construct: To assess the stability of hemoglobin in stool samples, samples were exposed to simulated shipping stress conditions; from tissue; host or cells: stool samples
# [5] = biological target: T1, hemoglobin in stool samples; experiment: 7-Day modified shipping simulation, hemoglobin % recovery by ELISA; set-up: from tissue; host or cells: stool samples
# [6] = biological target: T1, hemoglobin in stool samples; experiment: Accelerated shipping simulation (35C 16 hour challenge), hemoglobin % recovery by ELISA; set-up: To assess the stability of hemoglobin in stool samples, samples were exposed to simulated shipping stress conditions; from tissue; host or cells: stool samples;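 also: stool hemoglobin measured by ELISA before and after thermal-cycler shipping stress, stability given as percent of pre-stress hemoglobin recovered afterwards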
# [7] = additive concentrations as in the 9th table
# [8] = additive concentrations as in the 8th table
# [9] = additive concentrations as in the 10th table
# T3 sequence (P69905 2-142 limits assumed): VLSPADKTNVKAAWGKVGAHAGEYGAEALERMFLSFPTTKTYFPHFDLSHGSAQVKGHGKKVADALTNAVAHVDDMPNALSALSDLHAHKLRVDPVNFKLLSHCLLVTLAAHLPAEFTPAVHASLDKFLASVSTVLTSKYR
# T3 sequence (P68871 2-147 limits assumed): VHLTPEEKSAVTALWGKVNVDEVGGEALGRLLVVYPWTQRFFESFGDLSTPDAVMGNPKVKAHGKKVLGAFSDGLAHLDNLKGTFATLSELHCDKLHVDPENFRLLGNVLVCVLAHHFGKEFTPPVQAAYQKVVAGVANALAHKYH
# T1 sequence (P69905 2-142 limits assumed): as the sequence (P69905 2-142 limits assumed) above
# T1 sequence (P68871 2-147 limits assumed): as the sequence (P68871 2-147 limits assumed) above
# T4 sequence (P69905 2-142 limits assumed): as the sequence (P69905 2-142 limits assumed) above
# T4 sequence (P68871 2-147 limits assumed): as the sequence (P68871 2-147 limits assumed) above
# T2 sequence (P69905 2-142 limits assumed): as the sequence (P69905 2-142 limits assumed) above
# T2 sequence (P68871 2-147 limits assumed): as the sequence (P68871 2-147 limits assumed) above
compound,measurement,setting,value
C[N+](C)(C)CC(=O)O [Betaine],Notes (Hb stability vs Hb Collection Buffer),[1]; [7],Improved Hb
same,Results,Hb,Betaine shows improvement
same,Results,[2]; Additive Concentration 1M,Betaine shows improvement
same,Results,[2]; additive concentration 0.05M,Betaine shows improvement
same,Results,[2]; additive concentration 0.5M,Betaine shows improvement
same,Results,[2]; additive concentration 1.25M,Betaine shows improvement
same,Results,[2]; additive concentration 3M,Betaine shows improvement
same,Results,[2]; additive concentration 3.5M,Betaine shows improvement
same,Results,[2]; additive concentration 3.75M,Betaine shows improvement
same,Results,[2]; additive concentration 4M,Betaine shows improvement
same,Results,[2]; additive concentration 5M,Betaine shows improvement
same,Results,[2]; additive concentration […],Betaine shows improvement
same,Notes (Hb stability vs Hb Collection Buffer),[2]; [8],Improved Hb
same,Notes (Hb stability vs Hb Collection Buffer),[3]; [9],Improved Hb
same,Results,[4]; additive concentration 50 uM,No Improvement
same,Results,[4]; additive concentration 500 uM,No Improvement
same,Results,[4]; additive concentration 50 mM,No Improvement
same,Results,[4]; additive concentration 96 mM,No Improvement
same,Results,[4]; additive concentration 3.5M,Improvement
[Ca+2].[Cl-].[Cl-] [Calcium Chloride],Notes (Hb stability vs Hb Collection Buffer),[1]; [7],Improved Hb
same,Results,Hb,Calcium cation shows
same,Results,hemoglobin (Hb); Additive Concentration 10 mM,No improvement; also recorded: Improvement in % Hb
same,Results,[2]; Additive Concentration 10 mM,Calcium cation shows
same,Results,[2]; additive concentration 5 mM,Calcium cation shows
same,Results,[2]; additive concentration 10 mM,Calcium cation shows
same,Results,[2]; additive concentration 20 mM,Calcium cation shows
same,Results,[2]; additive concentration 30 mM,Calcium cation shows
same,Results,[2]; additive concentration 40 mM,Calcium cation shows
same,Results,[2]; additive concentration 50 mM,Calcium cation shows
same,Notes (Hb stability vs Hb Collection Buffer),[2]; [8],Improved Hb
same,Notes (Hb stability vs Hb Collection Buffer),[3]; [9],Improved Hb
same,Results,[4],Calcium cation shows; also recorded: Improvement
O=C(O)c1cccnc1 [Vitamin B3],Results,hemoglobin,No Improvement
O=NO [Sodium Nitrite],Results,hemoglobin,No Improvement
"C=Cc1c(C)c2cc3[nH]c(cc4nc(cc5nc(cc1[nH]2)C(C)=C5CCC(=O)[O-])C(CCC(=O)[O-])=C4C)c(C)c3C=C.[Co+2] [Protoporphyrin IX Co, Protoporphyrin IX Cobalt]",Notes (Hb stability vs Hb Collection Buffer),[1]; concentrations and buffer pH 6.5 or 7.4 as in the 14th table,Improved
same,Notes (Hb stability vs Hb Collection Buffer),"[5]; 3-6 μM, buffer pH 6.4-7.0 as in the 17th table",Improved Hb
same,Hb stability (in words),"[5]; concentrations of 3-6 μM, adjusted pH range of 6.4-7.0",increased Hb stability
same,Results,hemoglobin (Hb); Additive Concentration 0.1 uM,No Improvement
same,Results,hemoglobin (Hb); additive concentration 5 uM,Improvement in % Hb
same,Results,hemoglobin (Hb); additive concentration 10 uM,Improvement in % Hb
same,Notes (Hb stability vs Hb Collection Buffer),"[2]; 3-Day and 7-Day Shipping Simulation, concentrations and pH as in the 18th table",Improved Hb
same,Hb stability (in words),"[2]; 3 and 7 day Shipping Simulations, concentrations of 2.5-10 µM, adjusted pH of 6.8",increased Hb stability
same,Notes (Hb stability vs Hb Collection Buffer),[2]; concentrations and buffer pH 6.5 or 7.4 as in the 13th table,Improved
same,Hb stability compared to the Polymedco buffer (in words),[3]; additive in Hb Collection Buffer,improved Hb stability compared to the Polymedco buffer
same,Notes (Hb stability vs Hb Collection Buffer),[3]; concentrations and buffer pH 6.5 or 7.4 as in the 15th table,Improved
same,Notes (Hb stability vs Hb Collection Buffer),"[4]; 35C 16 hour challenge, concentrations and pH as in the 19th table",Improved Hb
same,Hb stability (in words),"[4]; 35C 16 hour challenge, concentrations of 2.5-10 μM, adjusted pH range of 6.2-7.4",increased Hb stability
same,Results,[4]; additive concentration 5 uM,Improvement in % Hb
same,Results,"[4]; additive concentration 5 uM, pH 6.5",Improvement
same,Results,"[4]; additive concentration 5 uM, pH 7.4",Improvement
O=C(O)[C@@H](CO)O[C@@H]1O[C@H](CO)[C@@H](O)[C@H](O)[C@@H]1O,Results,[6]; additive concentration 0.377 mM,No Improvement
same,Results,[6]; additive concentration 1 mM,No Improvement
